Reference: PubChem BioAssay (NCI)
Several values for one entry are separate records, joined by “and”; a condition that tells them apart may be missing. Equal values may be shown once.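 Values below derive from 48-hour exposures of cells grown in 96-well plates, with endpoints linearly interpolated between the two concentrations bracketing the appropriate inhibition level. GI50 marks 50% less growth. Definition used: TGI = concentration required for complete inhibition of growth.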

Columns and labels:
Assay in all cases: NCI anticancer screen, dose series, 48 h
NCI-H522 lung = system: NCI-H522 lung
HCC-2998 colon = system: HCC-2998 colon
DU-145 prostate = system: DU-145 prostate
EKVX NSCLC = system: EKVX NSCLC
HOP-62 NSCLC = system: HOP-62 NSCLC
HOP-92 NSCLC = system: HOP-92 NSCLC
SN12C renal = system: SN12C renal
CAKI-1 renal = system: CAKI-1 renal
SF-295 CNS = system: SF-295 CNS
UACC-257 melanoma = system: UACC-257 melanoma

Row | SMILES | GI50 (NCI-H522 lung) | TGI (NCI-H522 lung) | GI50 (HCC-2998 colon) | TGI (HCC-2998 colon) | GI50 (DU-145 prostate) | TGI (DU-145 prostate) | GI50 (EKVX NSCLC) | TGI (EKVX NSCLC) | GI50 (HOP-62 NSCLC) | TGI (HOP-62 NSCLC) | GI50 (HOP-92 NSCLC) | TGI (HOP-92 NSCLC) | GI50 (SN12C renal) | TGI (SN12C renal) | GI50 (CAKI-1 renal) | TGI (CAKI-1 renal) | GI50 (SF-295 CNS) | TGI (SF-295 CNS) | GI50 (UACC-257 melanoma) | TGI (UACC-257 melanoma)
1 | CC/C=C\CCC/C=C1/C(=O)C=C[C@@H]1C/C=C\CCCC(=O)O | 2.02 µM | 4.78 µM | 1.8 µM | 3.39 µM | 11.3 µM | 23.8 µM | 4.02 µM | 14 µM | 7.61 µM | 22 µM | 13.2 µM | 27 µM | 3.05 µM | 8.5 µM | 3.43 µM | 11.9 µM | 2.87 µM | 8.13 µM | 10.5 µM | 23.7 µM
2 | CCNCCNc1cc(-c2ccc(F)cc2)c(C#N)c2nc3ccccc3n12 | 2.93 µM | 9.43 µM | 3.83 µM | 14.2 µM | 4.01 µM | 14.9 µM | 13.6 µM | 26.7 µM | 18.2 µM | 32.8 µM | 2.82 µM | 8.12 µM | 3.89 µM | 14.4 µM | 4 µM | 15.4 µM | 1.8 µM | 3.79 µM | 2.1 µM | 3.82 µM
3 | CN(C)c1ccc(/C=C/c2ccnc3ccccc23)cc1 | 10.5 µM | > 100 µM | 5.95 µM | > 100 µM and 33 µM | 5.86 µM | > 100 µM | 3.19 µM | > 100 µM and 30.2 µM | 3.34 µM | > 100 µM and 16.6 µM | 0.651 µM | > 100 µM and 10.8 µM | 3.95 µM | > 100 µM | 9.68 µM | > 100 µM and 45 µM | 3.43 µM | > 100 µM and 21.2 µM | 22.2 µM | > 100 µM and 71.2 µM
4 | NC(CSC(c1ccccc1)(c1ccccc1)c1ccc2ccccc2c1)C(=O)O (stereo not given) | 0.0392 µM | 1.49 µM | 0.0374 µM | 0.496 µM | 0.0986 µM | 0.333 µM | 0.136 µM | 26.3 µM | 0.114 µM | 14.4 µM | 0.215 µM | 23.2 µM | 0.0874 µM | 18.2 µM | 0.0998 µM | 34.6 µM | 0.0246 µM | 2.64 µM | 9.67 µM | 34.3 µM
